Patent US8575173B2, “Piperazinyl 3-aminopyrrolidine derivatives as a CCR2 antagonists” (Yang Ji Chemical Co., Ltd., priority 2009, dated 2013)

What was measured:
CYP2D6 = CYP2D6 (Homo sapiens, UniProt P10635); test: CYP450 inhibitory activity, CYP2D6; type: in vitro ADME; settings: CYP2D6 enzyme membrane, 10 μM compound, read-out: Inhibition of CYP450, % @10 μM: 2D6
Procedure: Luciferin detection reagent is dissolved in buffer solution and each CYP enzyme membrane is prepared. […] After reacting with 12.5 μl NADPH regeneration reagent of CYP enzyme for 30 min, adding 25 μl luciferin detection reagent and keeping for 20 min, luminescence is measured at Fusion α.

HepG2 = test: Cytotoxicity (cell viability, MTS assay), HepG2; type: cell-based; settings: 10 μM compound, vs control group
Excerpt: (§1) The MTS (3-(4,5-dimethylthiazol-2-yl)-5-(3-carboxymethoxyphenyl)-2-(4-sulfophenyl)-2H-tetrazolium, inner salt, Promega, U.S.A) assay to THP-1 cell is used to measure cytotoxicity of test compound. The MTS assay is applicable to sensitively measure viability, multiplication and activity of cell and is a method using transformation the yellow MTS into insoluble formazan by dehydrogenase of mitochondria during metabolism of viable cell. The THP-1 cell is proliferated on RPMI-1640 supplemented with 10% fetal bovine serum under 37° C., at 5% CO2 incubator. Cell density is maintained around 0.5×10^6 cells/ml. THP-1 cell is poured into 96-well plate in 1×10^6 cell/ml and treating with 1, 10 μM concentration of test compound, after 24 hours 20 μl of 317 μg/ml MTS is treated to 96-well plate. Cell viability as the he absorbance of crystalline formazan of test group to control group observed at 490 nm using ELISA reader after 1 hour is calculated by following mathematical formula 2. Cell viability(%)=(Absorbance of experimental wells)/(Absorbance of control wells))×100 [Mathematical Formula 2]
(§2) The cell cytotoxicity test is performed to many cell lines, for example HepG2, NIH3T3, CHO-K1, HEK293, in addition to THP-1 illustrated above, and test procedures related to these are same or similar as described method above.

HEK 293 = test: Cytotoxicity (cell viability, MTS assay), HEK 293; type: cell-based; settings: 10 μM compound, vs control group
Excerpt: as §1, §2

CCR2b = molecular target: T1, CCR2b (Homo sapiens, UniProt P41597); test: CCR2 inhibitory effect on Ca2+ flux (HEK293/CCR2b, MCP-1 stimulated); type: cell-based; settings: HEK293/CCR2b cells, MCP-1 added; read-out: Blocking Ca^2+ flux, IC50
T1 construct: expressed in transfected cells; host or cells: HEK293
T1 sequence (P41597 1-360 isoform P41597-2): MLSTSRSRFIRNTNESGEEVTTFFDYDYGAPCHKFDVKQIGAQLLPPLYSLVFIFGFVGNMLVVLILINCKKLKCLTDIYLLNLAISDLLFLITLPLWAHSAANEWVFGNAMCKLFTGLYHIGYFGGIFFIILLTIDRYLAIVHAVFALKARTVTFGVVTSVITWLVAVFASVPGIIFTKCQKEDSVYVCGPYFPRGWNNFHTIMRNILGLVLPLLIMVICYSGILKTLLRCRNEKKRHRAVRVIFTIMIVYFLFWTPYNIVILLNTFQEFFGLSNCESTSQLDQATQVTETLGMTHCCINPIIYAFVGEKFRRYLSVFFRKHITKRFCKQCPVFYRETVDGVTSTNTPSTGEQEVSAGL
Procedure: After seeding CCR2b transformed cell (HEK293/CCR2b) on black-clear bottom plate coated with lysine, it was adapted for 24 hours and exchanged into serum free media (DMEM) and allowed to cultivate overnight. Next day After the compound is treated with Flour-4 (calcium dye, Molecular probe) and cultivated for 50 min on incubator, it is washed calcium-free buffer solution and pretreated for 10-15 min. It is added with MCP-1 and its signal is measured with FlexStation^II (Molecular device).

CHO-K1 = test: Cytotoxicity (cell viability, MTS assay), CHO-K1; type: cell-based; settings: 10 μM compound, vs control group
Excerpt: as §1, §2

CYP1A2 = molecular target: T2, CYP1A2 (Homo sapiens, UniProt P05177); test: CYP450 inhibitory activity, CYP1A2; type: in vitro ADME; settings: CYP1A2 enzyme membrane, 10 μM compound, read-out: Inhibition of CYP450, % @10 μM: 1A2
T2 sequence (P05177 1-516): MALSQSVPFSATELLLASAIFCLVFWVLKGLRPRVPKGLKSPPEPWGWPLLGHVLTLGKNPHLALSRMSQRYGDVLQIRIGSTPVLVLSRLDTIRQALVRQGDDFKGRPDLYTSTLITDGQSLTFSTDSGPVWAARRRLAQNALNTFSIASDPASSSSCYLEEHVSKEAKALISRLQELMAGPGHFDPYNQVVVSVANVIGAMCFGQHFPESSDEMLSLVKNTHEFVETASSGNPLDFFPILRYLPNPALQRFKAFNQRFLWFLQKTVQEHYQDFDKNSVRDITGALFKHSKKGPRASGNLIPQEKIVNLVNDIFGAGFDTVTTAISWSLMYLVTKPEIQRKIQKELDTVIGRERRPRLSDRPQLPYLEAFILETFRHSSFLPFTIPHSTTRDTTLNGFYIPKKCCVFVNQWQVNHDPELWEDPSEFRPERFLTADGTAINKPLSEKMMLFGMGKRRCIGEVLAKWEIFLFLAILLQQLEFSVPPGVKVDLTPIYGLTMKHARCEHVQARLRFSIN
Procedure: (§3) It is analyzed inhibitory activity assay on 5 types (CYP3A4, 2C9, 2C19, 2D6, 1A2) of 11 types CYP450, drug metabolic enzyme. Luciferin detection reagent is dissolved in buffer solution and each CYP enzyme membrane is prepared.
(§4) 4-fold concentration of the compound in 6.25 μl is prepared, and added to 6.25 μl mixture containing enzyme and proper different substrate depending on enzyme types, and kept for 10 min. After reacting with 12.5 μl NADPH regeneration reagent of CYP enzyme for 30 min, adding 25 μl luciferin detection reagent and keeping for 20 min, luminescence is measured at Fusion α.

CCR2 [1] = molecular target: T3, CCR2 (Homo sapiens, UniProt P41597); test: CCR2 receptor protein binding assay ([125I]-MCP1); parameters: purchased Perkinelmer, USA; host or cells: CHO cell membranes; settings: [125I]-MCP1 binding, CCR2 membrane expressed in CHO cell; read-out: Affinity to CCR2 receptor, IC50
T3 sequence (P41597 whole entry): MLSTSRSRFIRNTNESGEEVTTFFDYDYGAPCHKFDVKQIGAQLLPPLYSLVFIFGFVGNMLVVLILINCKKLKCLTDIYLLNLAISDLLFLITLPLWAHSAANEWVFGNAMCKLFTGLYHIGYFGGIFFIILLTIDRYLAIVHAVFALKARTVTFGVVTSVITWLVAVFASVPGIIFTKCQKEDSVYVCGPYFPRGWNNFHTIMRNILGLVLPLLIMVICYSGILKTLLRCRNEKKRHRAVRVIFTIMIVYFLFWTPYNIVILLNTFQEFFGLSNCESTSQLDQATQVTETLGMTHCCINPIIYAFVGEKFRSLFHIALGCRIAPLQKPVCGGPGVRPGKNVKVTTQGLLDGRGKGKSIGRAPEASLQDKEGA
Procedure: The buffer used for receptor binding assay is 50 mM Hepes (pH 7.4) containing 5 mM MgCl2, 1 mM CaCl2 and 0.5% BSA. The resultant reaction mixture in final volume 0.25 ml is prepared by adding CCR2 membrane (10 μg/well), [^125I]-MCP1 to test drug in 96-well plate on [^125I]-MCP1 binding assay and is cultivated on 27° C. for 60 min.
After incubation, reaction is terminated with fast filtering through Wallac filtermat A GF/C glass fiber filter (Wallac, Finland) pre-wetted in 0.5% PEI using Inotech harvester (Inotech) and is washed in cold 50 mM Tris-HCl (pH 7.4) buffer solution. After filter is covered with MeltiLex, it is sealed in sample bag, dried on oven, and counted using MicroBeta Plus (Wallac).
[…] is used in non-specific binding measurement.

CYP2C9 = CYP2C9 (Homo sapiens, UniProt P11712); test: CYP450 inhibitory activity, CYP2C9; type: in vitro ADME; settings: CYP2C9 enzyme membrane, 10 μM compound, read-out: Inhibition of CYP450, % @10 μM: 2C9
Chain of CYP2C9 (P11712 whole entry): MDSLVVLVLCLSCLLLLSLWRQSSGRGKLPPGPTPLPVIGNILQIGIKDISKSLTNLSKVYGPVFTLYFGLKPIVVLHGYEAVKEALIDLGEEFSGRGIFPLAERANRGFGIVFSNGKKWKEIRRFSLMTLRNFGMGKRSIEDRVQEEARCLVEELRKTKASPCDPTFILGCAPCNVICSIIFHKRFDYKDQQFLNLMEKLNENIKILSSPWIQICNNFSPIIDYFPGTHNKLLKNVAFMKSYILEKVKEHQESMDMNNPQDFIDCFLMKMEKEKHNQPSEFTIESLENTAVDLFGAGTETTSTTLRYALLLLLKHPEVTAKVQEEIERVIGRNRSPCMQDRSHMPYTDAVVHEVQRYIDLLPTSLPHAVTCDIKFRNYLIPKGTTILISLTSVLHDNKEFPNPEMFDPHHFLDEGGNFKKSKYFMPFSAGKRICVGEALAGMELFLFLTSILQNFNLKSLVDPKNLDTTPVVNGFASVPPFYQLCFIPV
Procedure: as §3, §4

CCR2 [2] = molecular target: T3, CCR2; test: Inhibitory effect on MCP-1 induced chemotaxis of THP-1 cells; type: cell-based; parameters: endogenous in cells; host or cells: THP-1; settings: hMCP-1 10 ng/ml, 2 hours, read-out: Inhibition of Chemotaxis, IC50
Procedure: Antagonistic effect on the compound on CCR2 activity was measured by leukocyte chemotaxis assay using a proper cell line.
The used cell line is THP-1 and it is proliferated RPMI-1640 supplemented with 10% fetal calf serum under 37° C. at 5% CO2 incubator. Cell density was maintained near about 0.5×10^6 cells/ml.
Cell is allowed to have chemotaxis under 37° C., 5% CO2 incubator for 2 hours. After incubating for 2 hours, cells which is not moved from the upper side of filter are removed by wiping the filter with cotton swab.
The cells moved to lower chamber was measured using fluorescent plate reader under λexcite=480 nm, λexit=520 nm.
The chemotaxis may be described as chemotaxis coefficient, ratio between mean value of cells moved under existence of MCP-1 and mean value of cells moved under absence of chemokine.

CYP3A4 = CYP3A4 (Homo sapiens, UniProt P08684); test: CYP450 inhibitory activity, CYP3A4; type: in vitro ADME; settings: CYP3A4 enzyme membrane, 10 μM compound, read-out: Inhibition of CYP450, % @10 μM: 3A4
Chain of CYP3A4 (P08684 whole entry): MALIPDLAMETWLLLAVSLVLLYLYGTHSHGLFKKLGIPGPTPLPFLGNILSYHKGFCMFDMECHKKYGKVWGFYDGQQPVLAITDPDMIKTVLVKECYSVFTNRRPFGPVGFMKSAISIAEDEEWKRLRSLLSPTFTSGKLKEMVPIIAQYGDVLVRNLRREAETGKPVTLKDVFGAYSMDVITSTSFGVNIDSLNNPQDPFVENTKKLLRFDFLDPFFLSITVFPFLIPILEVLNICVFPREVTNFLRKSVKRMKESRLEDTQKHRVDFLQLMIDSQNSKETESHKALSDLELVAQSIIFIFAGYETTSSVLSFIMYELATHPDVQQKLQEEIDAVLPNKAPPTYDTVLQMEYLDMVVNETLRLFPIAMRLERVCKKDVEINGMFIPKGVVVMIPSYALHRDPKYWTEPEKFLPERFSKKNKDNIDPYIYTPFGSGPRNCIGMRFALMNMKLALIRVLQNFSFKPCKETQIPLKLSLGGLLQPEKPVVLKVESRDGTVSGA
Procedure: as §3, §4

NIH 3T3 = test: Cytotoxicity (cell viability, MTS assay), NIH 3T3; type: cell-based; settings: 10 μM compound, vs control group
Excerpt: as §1, §2

CYP2C19 = CYP2C19 (Homo sapiens, UniProt P33261); test: CYP450 inhibitory activity, CYP2C19; type: in vitro ADME; settings: CYP2C19 enzyme membrane, 10 μM compound, read-out: Inhibition of CYP450, % @10 μM: 2C19
Chain of CYP2C19 (P33261 whole entry): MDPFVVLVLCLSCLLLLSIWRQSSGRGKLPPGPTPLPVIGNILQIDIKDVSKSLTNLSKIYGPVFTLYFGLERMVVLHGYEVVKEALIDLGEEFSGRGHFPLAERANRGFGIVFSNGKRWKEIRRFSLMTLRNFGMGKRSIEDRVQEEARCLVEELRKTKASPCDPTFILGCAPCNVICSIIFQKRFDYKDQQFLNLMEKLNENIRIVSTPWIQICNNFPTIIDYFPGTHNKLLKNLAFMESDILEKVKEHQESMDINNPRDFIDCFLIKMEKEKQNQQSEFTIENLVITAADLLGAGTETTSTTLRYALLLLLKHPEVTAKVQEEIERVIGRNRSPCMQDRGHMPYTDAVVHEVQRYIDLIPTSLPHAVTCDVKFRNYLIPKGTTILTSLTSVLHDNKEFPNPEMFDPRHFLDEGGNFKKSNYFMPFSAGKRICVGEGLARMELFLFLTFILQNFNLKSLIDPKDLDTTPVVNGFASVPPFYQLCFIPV
Procedure: as §3, §4

Chain of CYP2D6 (P10635 whole entry, the tested form may be a part): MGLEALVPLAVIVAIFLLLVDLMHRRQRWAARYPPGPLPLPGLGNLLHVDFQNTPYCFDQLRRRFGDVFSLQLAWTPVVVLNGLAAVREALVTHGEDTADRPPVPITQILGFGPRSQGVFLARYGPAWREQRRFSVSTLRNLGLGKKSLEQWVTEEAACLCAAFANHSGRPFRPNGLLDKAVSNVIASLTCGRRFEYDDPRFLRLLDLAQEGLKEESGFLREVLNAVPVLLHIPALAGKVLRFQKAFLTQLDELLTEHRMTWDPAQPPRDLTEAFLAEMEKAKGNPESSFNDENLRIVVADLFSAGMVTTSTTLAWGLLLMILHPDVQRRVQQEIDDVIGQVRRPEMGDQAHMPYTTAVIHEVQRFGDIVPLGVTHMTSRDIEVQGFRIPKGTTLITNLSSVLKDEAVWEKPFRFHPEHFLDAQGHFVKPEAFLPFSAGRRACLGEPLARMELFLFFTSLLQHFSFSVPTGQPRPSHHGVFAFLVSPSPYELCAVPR

Compound: O=C(CNC(=O)c1cccc(C(F)(F)F)c1)N[C@@H]1CCN(CCN2CCN(C(=O)c3ccccc3)CC2)C1 [Example 6, N-{[1-(2-(4-benzoylpiperazine-1-yl)ethyl)-pyrrolidine-(3R)-yl-carbamoyl]-methyl}-3-trifluoromethylbenzamide]
- inhibition at 30 min, 10 µM (CYP2D6): 8.5%
- Cell viability, % @10 μM: HepG2 (HepG2): 73.5%
- Cell viability, % @10 μM: HEK 293 (HEK 293): 59.3%
- IC50 (CCR2b): 18 nM
- Cell viability, % @10 μM: CHO-K1 (CHO-K1): 84.6%
- inhibition at 30 min, 10 µM (CYP1A2): 23.5%
- IC50 (CCR2 [1]): 990 nM
- inhibition at 30 min, 10 µM (CYP2C9): 23.6%
- IC50 (CCR2 [2]): 9 nM
- inhibition at 30 min, 10 µM (CYP3A4): 6.5%
- Cell viability, % @10 μM: NIH 3T3 (NIH 3T3): 70.6%
- inhibition at 30 min, 10 µM (CYP2C19): 14.2%

Compound: Cc1ccccc1C(=O)N1CCN(CCN2CC[C@@H](NC(=O)CNC(=O)c3cccc(C(F)(F)F)c3)C2)CC1 [Example 7, N-{[1-(2-(4-(2-methylbenzoyl)piperazine-1-yl)ethyl)-pyrrolidine-(3R)-yl-carbamoyl]-methyl}-3-trifluoromethylbenzamide]
- inhibition at 30 min, 10 µM (CYP2D6): -3.5%
- Cell viability, % @10 μM: HepG2 (HepG2): 105.8%
- Cell viability, % @10 μM: HEK 293 (HEK 293): 66.9%
- IC50 (CCR2b): 120 nM
- Cell viability, % @10 μM: CHO-K1 (CHO-K1): 80.1%
- inhibition at 30 min, 10 µM (CYP1A2): 6.6%
- IC50 (CCR2 [1]): 4440 nM
- inhibition at 30 min, 10 µM (CYP2C9): 19%
- IC50 (CCR2 [2]): 70 nM
- inhibition at 30 min, 10 µM (CYP3A4): 28.2%
- Cell viability, % @10 μM: NIH 3T3 (NIH 3T3): 73.0%
- inhibition at 30 min, 10 µM (CYP2C19): 9.5%
